Measured values taken from PMC10746543, “Design principles for cyclin K molecular glue degraders” (Nature Chemical Biology, 2023).
Several values for one entry are separate records, joined by “and”; a condition that tells them apart may be missing. Identical values can stand only once. Like-named read-outs stand apart in the source and are kept apart here.

What was measured:
cyclin K = test: Label-free quantitative mass spectrometry in MDA-MB-231 cells, cyclin K; format: cell-based, human
In short: (§1)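 MDA-MB-231 cells treated 5 h with 1 µM cyclin K degrader or DMSO. Lysates digested with LysC and trypsin, then analysed by label-free diaPASEF LC-MS on a TimsTOF Pro2 with directDIA search and MS1 precursor quantification. Protein abundances scaled and analysed with limma.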

CDK12–cyclin K and DDB1 = target: T1, CDK12–cyclin K and DDB1 (Homo sapiens, UniProt Q16531+Q9NYV4, K965R); test: TR-FRET ternary complex formation assay (compound titration); format: binding
T1 construct: His6–CDK12 (a.a. 713–1,052); full-length or beta-propeller B domain deletion (ΔBPB: a.a. 396–705 deleted) constructs of His6–DDB1ΔBPB, StrepII–Avi–DDB1, or His6–Spy–DDB1; made in house; host or cells: Trichoplusia ni High Five insect cells (baculovirus)
T1 sequence (Q9NYV4 713-1052 K965R): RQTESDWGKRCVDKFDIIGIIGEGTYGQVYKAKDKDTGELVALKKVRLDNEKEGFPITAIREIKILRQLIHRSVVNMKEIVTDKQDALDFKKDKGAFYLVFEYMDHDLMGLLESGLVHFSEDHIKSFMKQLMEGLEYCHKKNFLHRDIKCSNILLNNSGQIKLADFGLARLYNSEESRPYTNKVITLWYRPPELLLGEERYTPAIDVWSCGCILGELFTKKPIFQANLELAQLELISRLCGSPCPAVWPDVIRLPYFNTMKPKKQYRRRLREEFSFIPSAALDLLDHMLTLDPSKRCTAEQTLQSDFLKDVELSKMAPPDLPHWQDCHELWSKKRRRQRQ
T1 sequence (O75909 1-267 partner): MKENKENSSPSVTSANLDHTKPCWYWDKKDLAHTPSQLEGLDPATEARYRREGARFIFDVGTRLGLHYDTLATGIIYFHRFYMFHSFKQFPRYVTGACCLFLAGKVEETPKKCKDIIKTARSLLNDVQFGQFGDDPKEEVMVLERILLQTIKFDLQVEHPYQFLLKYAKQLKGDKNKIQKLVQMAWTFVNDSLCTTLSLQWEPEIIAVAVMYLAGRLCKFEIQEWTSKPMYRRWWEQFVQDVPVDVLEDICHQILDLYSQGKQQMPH
T1 sequence (Q16531 whole entry): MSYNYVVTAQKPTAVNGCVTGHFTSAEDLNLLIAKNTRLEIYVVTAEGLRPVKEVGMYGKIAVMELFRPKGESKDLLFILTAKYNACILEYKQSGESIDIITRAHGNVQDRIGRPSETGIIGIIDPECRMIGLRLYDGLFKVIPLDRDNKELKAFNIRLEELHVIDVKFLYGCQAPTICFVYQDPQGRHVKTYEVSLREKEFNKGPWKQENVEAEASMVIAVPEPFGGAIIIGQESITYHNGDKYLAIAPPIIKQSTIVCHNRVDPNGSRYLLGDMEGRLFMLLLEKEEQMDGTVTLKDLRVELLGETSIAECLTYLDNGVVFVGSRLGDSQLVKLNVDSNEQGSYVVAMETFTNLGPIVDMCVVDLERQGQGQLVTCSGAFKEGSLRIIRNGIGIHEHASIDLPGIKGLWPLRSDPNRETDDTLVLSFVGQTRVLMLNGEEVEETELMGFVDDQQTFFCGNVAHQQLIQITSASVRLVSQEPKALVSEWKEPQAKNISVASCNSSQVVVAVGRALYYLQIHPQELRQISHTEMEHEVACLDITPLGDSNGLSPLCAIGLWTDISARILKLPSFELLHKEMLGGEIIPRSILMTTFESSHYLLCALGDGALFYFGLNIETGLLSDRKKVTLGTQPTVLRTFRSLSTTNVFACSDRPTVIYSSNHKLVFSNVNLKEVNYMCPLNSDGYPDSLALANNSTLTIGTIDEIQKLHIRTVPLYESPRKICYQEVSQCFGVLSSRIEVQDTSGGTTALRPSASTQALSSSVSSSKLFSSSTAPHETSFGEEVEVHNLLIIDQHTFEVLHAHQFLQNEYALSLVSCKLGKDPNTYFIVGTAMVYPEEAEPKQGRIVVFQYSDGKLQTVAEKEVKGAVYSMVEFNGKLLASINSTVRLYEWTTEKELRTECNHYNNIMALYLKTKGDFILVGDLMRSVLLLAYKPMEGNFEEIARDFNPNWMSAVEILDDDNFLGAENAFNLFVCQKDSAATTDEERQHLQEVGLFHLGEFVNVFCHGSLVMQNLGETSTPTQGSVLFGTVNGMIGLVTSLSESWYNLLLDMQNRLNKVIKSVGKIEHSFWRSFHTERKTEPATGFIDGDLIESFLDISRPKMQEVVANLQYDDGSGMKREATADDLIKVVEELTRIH
In short: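 TR-FRET ratio 520/490 nm; 70 μs delay before read to suppress background.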

CDK12 = target: T2, CDK12 (Homo sapiens, UniProt Q16531+Q9NYV4); test: Label-free quantitative mass spectrometry in MDA-MB-231 cells, CDK12; format: cell-based
T2 construct: endogenous in cells; host or cells: MDA-MB-231
T2 sequence (Q9NYV4 whole entry): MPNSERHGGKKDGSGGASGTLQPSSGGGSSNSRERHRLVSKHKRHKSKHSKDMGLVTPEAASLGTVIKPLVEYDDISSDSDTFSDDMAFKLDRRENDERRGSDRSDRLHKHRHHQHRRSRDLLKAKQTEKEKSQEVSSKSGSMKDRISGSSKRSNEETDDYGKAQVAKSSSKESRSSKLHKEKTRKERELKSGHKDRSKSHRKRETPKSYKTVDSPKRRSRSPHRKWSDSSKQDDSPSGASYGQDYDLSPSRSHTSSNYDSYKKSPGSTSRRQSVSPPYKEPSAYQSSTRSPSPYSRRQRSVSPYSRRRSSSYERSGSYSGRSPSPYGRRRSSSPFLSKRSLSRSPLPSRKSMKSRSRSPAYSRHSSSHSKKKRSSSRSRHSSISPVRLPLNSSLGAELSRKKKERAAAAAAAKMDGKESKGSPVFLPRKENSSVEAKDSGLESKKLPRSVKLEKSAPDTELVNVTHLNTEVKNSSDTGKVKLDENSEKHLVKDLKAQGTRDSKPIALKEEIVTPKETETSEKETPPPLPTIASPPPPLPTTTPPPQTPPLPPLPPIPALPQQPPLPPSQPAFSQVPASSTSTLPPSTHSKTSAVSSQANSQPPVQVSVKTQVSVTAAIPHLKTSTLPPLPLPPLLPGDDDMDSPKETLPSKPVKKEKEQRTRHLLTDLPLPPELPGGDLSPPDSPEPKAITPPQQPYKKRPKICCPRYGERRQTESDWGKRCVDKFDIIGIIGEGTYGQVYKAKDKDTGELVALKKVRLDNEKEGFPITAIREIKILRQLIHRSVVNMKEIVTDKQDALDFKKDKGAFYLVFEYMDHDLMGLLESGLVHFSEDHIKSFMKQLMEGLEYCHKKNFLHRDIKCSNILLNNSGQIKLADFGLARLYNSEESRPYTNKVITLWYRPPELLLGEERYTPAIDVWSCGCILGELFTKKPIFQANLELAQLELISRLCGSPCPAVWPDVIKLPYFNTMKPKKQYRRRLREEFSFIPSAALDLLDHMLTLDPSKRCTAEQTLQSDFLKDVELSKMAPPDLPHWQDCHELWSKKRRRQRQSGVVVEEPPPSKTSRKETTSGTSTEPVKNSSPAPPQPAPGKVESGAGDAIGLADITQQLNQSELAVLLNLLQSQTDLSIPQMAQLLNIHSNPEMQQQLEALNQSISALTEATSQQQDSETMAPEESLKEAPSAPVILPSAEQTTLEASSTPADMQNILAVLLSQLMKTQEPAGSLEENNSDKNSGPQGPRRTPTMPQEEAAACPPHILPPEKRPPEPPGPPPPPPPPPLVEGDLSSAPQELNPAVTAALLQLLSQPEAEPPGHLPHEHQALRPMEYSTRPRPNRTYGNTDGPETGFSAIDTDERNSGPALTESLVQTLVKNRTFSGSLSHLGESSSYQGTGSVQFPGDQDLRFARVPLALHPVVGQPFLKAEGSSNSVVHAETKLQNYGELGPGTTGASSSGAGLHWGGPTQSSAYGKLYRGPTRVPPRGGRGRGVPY
T2 sequence (O75909 whole entry partner): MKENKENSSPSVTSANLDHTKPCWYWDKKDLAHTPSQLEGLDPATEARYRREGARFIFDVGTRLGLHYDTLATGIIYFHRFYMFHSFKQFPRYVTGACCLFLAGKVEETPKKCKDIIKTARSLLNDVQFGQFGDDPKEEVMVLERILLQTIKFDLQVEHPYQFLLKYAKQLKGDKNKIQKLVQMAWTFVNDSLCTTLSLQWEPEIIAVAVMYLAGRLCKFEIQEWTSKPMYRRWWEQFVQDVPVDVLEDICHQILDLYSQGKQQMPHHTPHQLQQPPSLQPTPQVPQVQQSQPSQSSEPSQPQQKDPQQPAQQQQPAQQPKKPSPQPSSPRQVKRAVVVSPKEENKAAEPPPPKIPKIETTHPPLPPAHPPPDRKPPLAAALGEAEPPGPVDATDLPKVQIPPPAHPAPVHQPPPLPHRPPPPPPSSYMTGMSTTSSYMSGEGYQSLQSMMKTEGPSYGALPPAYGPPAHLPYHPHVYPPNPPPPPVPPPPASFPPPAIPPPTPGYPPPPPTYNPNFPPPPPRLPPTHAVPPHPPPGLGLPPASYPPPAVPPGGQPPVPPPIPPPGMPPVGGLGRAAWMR
T2 sequence (Q16531 2-1140 limits assumed): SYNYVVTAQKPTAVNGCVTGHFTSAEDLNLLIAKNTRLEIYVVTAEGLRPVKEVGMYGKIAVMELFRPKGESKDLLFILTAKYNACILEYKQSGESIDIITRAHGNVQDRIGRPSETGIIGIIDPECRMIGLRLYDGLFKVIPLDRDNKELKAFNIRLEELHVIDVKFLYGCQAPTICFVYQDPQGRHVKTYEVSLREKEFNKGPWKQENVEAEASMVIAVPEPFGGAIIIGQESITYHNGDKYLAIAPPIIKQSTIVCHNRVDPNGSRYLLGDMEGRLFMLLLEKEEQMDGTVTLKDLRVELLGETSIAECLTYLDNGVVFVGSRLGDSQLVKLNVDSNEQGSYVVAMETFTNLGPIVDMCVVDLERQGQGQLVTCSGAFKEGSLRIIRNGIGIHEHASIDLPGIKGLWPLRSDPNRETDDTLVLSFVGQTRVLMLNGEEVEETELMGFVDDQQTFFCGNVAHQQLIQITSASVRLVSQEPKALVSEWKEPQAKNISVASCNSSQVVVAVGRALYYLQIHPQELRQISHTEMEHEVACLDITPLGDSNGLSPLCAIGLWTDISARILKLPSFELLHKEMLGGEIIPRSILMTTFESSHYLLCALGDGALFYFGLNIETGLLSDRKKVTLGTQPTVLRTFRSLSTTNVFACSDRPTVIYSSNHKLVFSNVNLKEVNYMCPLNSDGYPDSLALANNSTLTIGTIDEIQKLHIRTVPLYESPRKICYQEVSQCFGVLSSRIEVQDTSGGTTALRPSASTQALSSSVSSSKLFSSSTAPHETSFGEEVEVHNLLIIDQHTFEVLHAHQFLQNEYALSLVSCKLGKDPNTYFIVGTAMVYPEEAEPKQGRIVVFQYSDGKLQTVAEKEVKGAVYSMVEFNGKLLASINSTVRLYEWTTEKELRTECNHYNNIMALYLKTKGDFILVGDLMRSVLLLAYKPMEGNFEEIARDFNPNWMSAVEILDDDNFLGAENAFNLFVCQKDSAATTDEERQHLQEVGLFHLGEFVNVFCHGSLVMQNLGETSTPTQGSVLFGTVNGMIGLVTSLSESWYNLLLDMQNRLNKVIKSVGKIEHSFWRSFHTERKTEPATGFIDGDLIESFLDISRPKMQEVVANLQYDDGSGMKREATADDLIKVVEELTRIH
In short: as §1

CDK2–cyclin A = target: T3, CDK2–cyclin A (Homo sapiens, UniProt P24941); test: Lanthascreen kinase binding assay, CDK2; conditions: for Lanthascreen signal, sheet CDK2: raw replicates
T3 construct: purchased Thermo Fisher
Procedure: Lanthascreen experiments were performed using commercially available reagents (Thermo Fisher) and according to the manufacturer’s instructions.

[1] = label-free quantitative MS, replicate values
[2] = normalised to DMSO = 1, replicate values

TR-FRET signal (CDK12–cyclin K and DDB1; compound concentration 0.468 nM): 0.3356 and 0.3148
TR-FRET signal (CDK12–cyclin K and DDB1; compound concentration 2.16 nM): 0.4152 and 0.4184
TR-FRET signal (CDK12–cyclin K and DDB1; compound concentration 3.6 nM): 0.5887 and 0.6016
TR-FRET signal (CDK12–cyclin K and DDB1; compound concentration 7.92001 nM): 0.8771 and 0.9002
TR-FRET signal (CDK12–cyclin K and DDB1; compound concentration 15.84 nM): 1.301 and 1.376
TR-FRET signal (CDK12–cyclin K and DDB1; compound concentration 30.96 nM): 2 and 2.052
TR-FRET signal (CDK12–cyclin K and DDB1; compound concentration 62.6401 nM): 2.747 and 2.77
TR-FRET signal (CDK12–cyclin K and DDB1; compound concentration 125.28 nM): 3.33 and 3.298
TR-FRET signal (CDK12–cyclin K and DDB1; compound concentration 244.8 nM): 3.75 and 3.634
TR-FRET signal (CDK12–cyclin K and DDB1; compound concentration 993.601 nM): 4.177 and 4.02
TR-FRET signal (CDK12–cyclin K and DDB1; compound concentration 2001.6 nM): 4.179 and 4.0366
EC50 (CDK12–cyclin K and DDB1; in vitro complex formation, 50 nM CDK12–cyclin K, 100 nM DDB1, text and figures, read-out: TR-FRET EC50): 38 ± 1 nM
EC50 (CDK12–cyclin K and DDB1; sheet MOESM7, read-out: log TR-FRET EC50 (converted)): 37.8 nM
EC50 (CDK12–cyclin K and DDB1; source data sheet correlations, read-out: TR-FRET EC50): 37.8 nM
CDK12 peptide count (CDK12; [1]): 562.617 and 625.634
CDK12 peptide count (DMSO-normalised) (CDK12; [2]): 0.6251 and 0.6462
Lanthascreen signal, sheet CDK2 (CDK2–cyclin A; Compound 0.038147 nM, experiment r13-r23): 0.01269 and 0.01352
Lanthascreen signal, sheet CDK2 (CDK2–cyclin A; Compound 0.038147 nM, experiment r48-r58): 0.008606 and 0.009047
Lanthascreen signal, sheet CDK2 (CDK2–cyclin A; Compound 0.038147 nM, experiment r60-r70): 0.02095 and 0.02064 and 0.01986
Lanthascreen signal, sheet CDK2 (CDK2–cyclin A; Compound 0.152588 nM, experiment r13-r23): 0.01305 and 0.01362
Lanthascreen signal, sheet CDK2 (CDK2–cyclin A; Compound 0.152588 nM, experiment r48-r58): 0.00965 and 0.01047
Lanthascreen signal, sheet CDK2 (CDK2–cyclin A; Compound 0.152588 nM, experiment r60-r70): 0.02036 and 0.02142 and 0.02063
Lanthascreen signal, sheet CDK2 (CDK2–cyclin A; Compound 0.610352 nM, experiment r13-r23): 0.01272 and 0.01276
Lanthascreen signal, sheet CDK2 (CDK2–cyclin A; Compound 0.610352 nM, experiment r48-r58): 0.009379 and 0.009611
Lanthascreen signal, sheet CDK2 (CDK2–cyclin A; Compound 0.610352 nM, experiment r60-r70): 0.02437 and 0.01852 and 0.0217
Lanthascreen signal, sheet CDK2 (CDK2–cyclin A; Compound 9.76563 nM, experiment r13-r23): 0.0128 and 0.01342
Lanthascreen signal, sheet CDK2 (CDK2–cyclin A; Compound 9.76563 nM, experiment r48-r58): 0.0095 and 0.01028
Lanthascreen signal, sheet CDK2 (CDK2–cyclin A; Compound 9.76563 nM, experiment r60-r70): 0.02195 and 0.02182 and 0.02183
Lanthascreen signal, sheet CDK2 (CDK2–cyclin A; Compound 39.0625 nM, experiment r13-r23): 0.01226 and 0.01223
Lanthascreen signal, sheet CDK2 (CDK2–cyclin A; Compound 39.0625 nM, experiment r48-r58): 0.009849 and 0.009843
Lanthascreen signal, sheet CDK2 (CDK2–cyclin A; Compound 39.0625 nM, experiment r60-r70): 0.02238 and 0.0202 and 0.02147
Lanthascreen signal, sheet CDK2 (CDK2–cyclin A; Compound 156.25 nM, experiment r13-r23): 0.01136 and 0.01335
Lanthascreen signal, sheet CDK2 (CDK2–cyclin A; Compound 156.25 nM, experiment r48-r58): 0.009932 and 0.01021
Lanthascreen signal, sheet CDK2 (CDK2–cyclin A; Compound 156.25 nM, experiment r60-r70): 0.02199 and 0.02222 and 0.02099
Lanthascreen signal, sheet CDK2 (CDK2–cyclin A; Compound 625 nM, experiment r13-r23): 0.01232 and 0.01317
Lanthascreen signal, sheet CDK2 (CDK2–cyclin A; Compound 625 nM, experiment r48-r58): 0.009318 and 0.009813
Lanthascreen signal, sheet CDK2 (CDK2–cyclin A; Compound 625 nM, experiment r60-r70): 0.02407 and 0.01928 and 0.02248
Lanthascreen signal, sheet CDK2 (CDK2–cyclin A; Compound 2500 nM, experiment r13-r23): 0.0114 and 0.013
Lanthascreen signal, sheet CDK2 (CDK2–cyclin A; Compound 2500 nM, experiment r48-r58): 0.009215 and 0.009737
Lanthascreen signal, sheet CDK2 (CDK2–cyclin A; Compound 2500 nM, experiment r60-r70): 0.02278 and 0.02094 and 0.0202
Lanthascreen signal, sheet CDK2 (CDK2–cyclin A; Compound 10000 nM, experiment r13-r23): 0.01075 and 0.01117
Lanthascreen signal, sheet CDK2 (CDK2–cyclin A; Compound 10000 nM, experiment r48-r58): 0.008396 and 0.009419
Lanthascreen signal, sheet CDK2 (CDK2–cyclin A; Compound 10000 nM, experiment r60-r70): 0.02054 and 0.0167 and 0.01885
IC50 (CDK2–cyclin A; Lanthascreen, average, Extended Data Fig. 8, read-out: CDK2 IC50): > 10000 nM
IC50 (CDK2–cyclin A; Supplementary Table 2, read-out: Lanthascreen IC50 [nM] CDK2): > 10000 nM
Compound: C[C@H](C(=O)Nc1nc2ccccc2[nH]1)N1Cc2ccccc2C1=O [compound 919278]
cyclin K abundance (label-free MS) (cyclin K; individual replicates, sheet EDF7): 525.324 and 551.956
cyclin K abundance (label-free MS) (cyclin K; [1]): 525.324 and 551.956
CCNK peptide count (DMSO-normalised) (cyclin K; [2]): 0.287 and 0.307
average CCNK peptide count (cyclin K; sheet EDF7): 538.64
